{
  "source": "patent US9492464B2",
  "about": "“Composition for preventing or treating side effect of steroid in subject comprising acetylsalicylic acid and use thereof” (Samsung Electronics Co., Ltd., priority 2014, dated 2016)",
  "format_in_all_cases": "cell-based, mouse",
  "key": {"[1]": {"tested_on": "Atrogin-1", "experiment": "Real time PCR of Atrogin-1 mRNA in differentiated C2C12 cells", "details": "400 μM Aspirin 24 hours, then 2 μM dexamethasone 24 hours, normalized to GAPDH, FIG. 3A", "description": "(§1) As described above with reference to Example 1(2), C2C12 cells were completely differentiated into muscle cells, and 4 ml of a fresh culture medium including 400 μM of Aspirin (Sigma Aldrich) was added thereto, and then the cells were cultured for 24 hours. 2 μM of dexamethasone (Sigma Aldrich) was added to the cultured cells, and the cells were cultured for 24 hours. The culture medium was removed therefrom, and the cells were collected. A negative control group was not treated with acetylsalicylic acid and dexamethasone.\n(§2) A Trizol reagent (Invitrogen) was added to the collected cells, and total RNA was separated therefrom according to manufacturer's protocols. Complementary DNA (cDNA) was synthesized from the separated total RNA by using a reverse transcriptase. Amounts of mRNA of Atrogin-1 and MuRF-1 were quantified using a real time PCR device (MyiQPCR instrument, BioRad) that is a device measuring SYBR Green. The results were normalized with respect to an amount of GAPDH mRNA. […]\n(§3) Values obtained via amplification were normalized by GAPDH gene, and relative expression levels of mRNA of Atrogin-1 and MURF-1 were quantified. The quantified relative expression levels (arbitrary unit (AU)) of mRNA of Atrogin-1 and MURF-1 are illustrated in FIGS. 3A and 3B, respectively, […]"}, "[2]": {"tested_on": "MuRF-1", "experiment": "Real time PCR of MuRF-1 mRNA in differentiated C2C12 cells", "details": "400 μM Aspirin 24 hours, then 2 μM dexamethasone 24 hours, normalized to GAPDH, FIG. 3B", "description": "as §1, §2, §3"}, "[3]": {"tested_on": "glucocorticoid receptor", "experiment": "Immunoblotting of phosphorylated glucocorticoid receptor (pGR) in differentiated C2C12 cells", "details": "40, 400 or 4000 μM Aspirin pre-treatment 24 hours, then 2 μM dexamethasone 24 hours; as amount of Aspirin increases, FIG. 1", "description": "First, C2C12 cell lines (mouse gastrocnemius muscle, ATCC® CRL-1772™) were seeded in a 60 mm dish in 10% FBS/DMEM and incubated at 37° C. in a 5% CO2 incubator. When the cells formed 70% confluent, the culture medium was replaced with 2% FBS/DMEM and the cells were cultured for 4 days to completely induce differentiation into muscle cells. C2C12 cell lines are mouse myoblast cell lines obtained by continuous culture of myoblast cells cultured from gastrocnemius muscle of C3H mice.\nWhen C2C12 cells were completely differentiated into muscle cells, the culture medium was removed therefrom, and 4 ml of a fresh culture medium including 40 μM, 400 μM, or 4000 μM of Aspirin (Sigma Aldrich) was added thereto, and then the cells were cultured for 24 hours. 2 μM of dexamethasone (Sigma Aldrich) was added to the cultured cells and the cells were further cultured for 24 hours. A negative control group was not treated with acetylsalicylic acid and dexamethasone.\nThe culture medium was removed therefrom, and the cells were collected. Then, 500 μl of RIPA (20 mM Tris-HCl (pH 7.5), 150 mM NaCl, 1 mM Na2EDTA, 1 mM EGTA, 1% NP-40, 1% (w/v) sodium deoxycholate, 2.5 mM sodium pyrophosphate, 1 mM beta-glycerophosphate, 1 mM Na3VO4, and 1 μg/ml leupeptin) lysis buffer was added thereto. The cells were lysed to obtain lysates. […]"}},
  "data": [
    {"smiles": "CC(=O)Oc1ccccc1C(=O)O", "note": "[Aspirin, 2-(acetyloxy)benzoic acid]", "values": [
      {"measurement": "expression of mRNA of Atrogin-1", "setting": "[1]", "value": "did not increase"},
      {"measurement": "expression of mRNA of MuRF1", "setting": "[2]", "value": "did not increase"},
      {"measurement": "amount of glucocorticoid receptor GR phosphorylated by dexamethasone", "setting": "[3]", "value": "decreases"}
    ]}
  ]
}
